In brackets after ≈: the same amount, converted by molar mass. Activity calls are given as the source filed them. No cut-off for these calls is given here.
How the values were obtained:
MX1 [1] = assay: Potentiation factor, ratio of IC50 for cytotoxicity against human MX1 cells to IC50 for cytotoxicity against human MX1 cells in presence of temozolomide; type: functional
[2] = target: Poly [ADP-ribose] polymerase 2 (Homo sapiens, UniProt Q9UGN5); assay: Inhibition of human recombinant PARP2 expressed in Escherichia coli BL21(DE3) incubated for 1 hr by ELISA assay
Sequence of Poly [ADP-ribose] polymerase 2 (Q9UGN5 whole entry): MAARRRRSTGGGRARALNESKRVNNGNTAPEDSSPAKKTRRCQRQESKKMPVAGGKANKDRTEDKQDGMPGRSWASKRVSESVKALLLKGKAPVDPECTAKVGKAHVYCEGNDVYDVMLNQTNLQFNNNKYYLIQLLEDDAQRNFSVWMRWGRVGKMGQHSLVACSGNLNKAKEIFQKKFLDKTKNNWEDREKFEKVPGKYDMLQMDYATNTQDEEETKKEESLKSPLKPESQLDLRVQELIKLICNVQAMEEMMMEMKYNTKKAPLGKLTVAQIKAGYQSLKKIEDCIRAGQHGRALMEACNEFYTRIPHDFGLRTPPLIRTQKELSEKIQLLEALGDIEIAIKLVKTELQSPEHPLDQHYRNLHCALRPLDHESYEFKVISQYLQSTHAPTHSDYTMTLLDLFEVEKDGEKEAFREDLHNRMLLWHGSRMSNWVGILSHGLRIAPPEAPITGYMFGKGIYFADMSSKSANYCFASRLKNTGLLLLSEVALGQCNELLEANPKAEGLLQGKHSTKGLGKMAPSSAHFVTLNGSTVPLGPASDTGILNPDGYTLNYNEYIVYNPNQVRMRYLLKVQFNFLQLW

MX1 [3] = assay: Cytotoxicity against human MX1 cells […] assessed as inhibition of cell growth measured after 72 hrs by MTT assay; type: functional, cell-based; settings: MX1, 72 h
[4] = target: T1, Poly [ADP-ribose] polymerase 1 (Homo sapiens, UniProt P09874); assay: Inhibition of human recombinant PARP1 expressed in Escherichia coli BL21(DE3) incubated for 1 hr by ELISA assay
T1 sequence (P09874 whole entry): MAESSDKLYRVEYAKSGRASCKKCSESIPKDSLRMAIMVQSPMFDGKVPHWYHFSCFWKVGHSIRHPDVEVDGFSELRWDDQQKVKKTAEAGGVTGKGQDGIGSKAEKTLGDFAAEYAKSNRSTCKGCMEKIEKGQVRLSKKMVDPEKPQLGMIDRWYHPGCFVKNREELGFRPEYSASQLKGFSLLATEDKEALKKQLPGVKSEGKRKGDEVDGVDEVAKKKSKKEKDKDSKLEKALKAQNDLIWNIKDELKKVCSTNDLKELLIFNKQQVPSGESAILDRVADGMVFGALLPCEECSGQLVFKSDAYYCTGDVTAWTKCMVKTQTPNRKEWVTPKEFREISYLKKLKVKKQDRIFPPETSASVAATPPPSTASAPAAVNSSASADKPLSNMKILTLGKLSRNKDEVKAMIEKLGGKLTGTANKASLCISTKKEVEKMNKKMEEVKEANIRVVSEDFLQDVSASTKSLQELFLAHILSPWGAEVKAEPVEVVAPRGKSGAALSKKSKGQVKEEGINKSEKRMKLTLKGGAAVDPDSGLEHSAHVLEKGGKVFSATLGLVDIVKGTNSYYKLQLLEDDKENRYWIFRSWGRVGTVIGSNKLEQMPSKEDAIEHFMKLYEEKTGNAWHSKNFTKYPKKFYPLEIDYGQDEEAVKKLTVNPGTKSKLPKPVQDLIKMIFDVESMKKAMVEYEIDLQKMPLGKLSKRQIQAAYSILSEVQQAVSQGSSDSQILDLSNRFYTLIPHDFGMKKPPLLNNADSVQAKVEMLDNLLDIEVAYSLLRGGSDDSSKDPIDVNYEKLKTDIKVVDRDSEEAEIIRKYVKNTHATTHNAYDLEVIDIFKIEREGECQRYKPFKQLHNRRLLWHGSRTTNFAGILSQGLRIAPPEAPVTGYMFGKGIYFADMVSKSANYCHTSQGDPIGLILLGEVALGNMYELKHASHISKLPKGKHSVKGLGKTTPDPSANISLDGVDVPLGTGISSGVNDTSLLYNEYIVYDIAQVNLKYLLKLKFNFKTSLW

[5] = target: T1, Poly [ADP-ribose] polymerase 1; assay: Inhibition of human PARP1 in human MX1 cells assessed as enzyme-DNA trapping activity at 1 uM incubated for 24 hrs by Western blot analysis; type: cell-based
[6] = Cmax in BALB/c mouse at 25 mg/kg, po measured upto 24 hrs by LC-MS/MS analysis; type: ADME, organism-based; design: time < 24 hrs, dose 25 mg/kg, route po; settings: in vivo
[7] = AUC (0 to infinity) in BALB/c mouse at 25 mg/kg, po measured upto 24 hrs by LC-MS/MS analysis; type: ADME, organism-based; design: dose 25 mg/kg, time < 24 hrs, route po; settings: in vivo
[8] = Half life in BALB/c mouse at 25 mg/kg, po measured upto 24 hrs by LC-MS/MS analysis; type: ADME, organism-based; settings: in vivo
[9] = Aqueous solubility of the compound; type: physicochemical
[10] = AUC (0 to t) in BALB/c mouse at 25 mg/kg, po measured upto 24 hrs by LC-MS/MS analysis; type: ADME, organism-based; design: time < 24 hrs, dose 25 mg/kg, route po; settings: in vivo
[11] = MRT (0 to t) in BALB/c mouse at 25 mg/kg, po measured upto 24 hrs by LC-MS/MS analysis; type: ADME, organism-based; settings: in vivo
[12] = MRT (0 to infinity) in BALB/c mouse at 25 mg/kg, po measured upto 24 hrs by LC-MS/MS analysis; type: ADME, organism-based; settings: in vivo
[13] = Tmax in BALB/c mouse at 25 mg/kg, po measured upto 24 hrs by LC-MS/MS analysis; type: ADME, organism-based; settings: in vivo

Compound | IC50 [2] | IC50 [4] | PARP1-DNA trapping activity [5] | PF50 (MX1 [1]) | IC50 (MX1 [3]) | also measured
CC(C)CCN1CCN(C(=O)c2cc(Cn3c(=O)[nH]c(=O)c4ccccc43)ccc2F)CC1=O | 0.92 nM | 3.03 nM |  | >10 | 12.4 nM | 
CCCN1CCN(C(=O)c2cc(Cn3c(=O)[nH]c(=O)c4ccccc43)ccc2F)CC1=O | 3.48 nM | 11.8 nM |  | >10 | 16.5 nM | 
CC(C)CN1CCN(C(=O)c2cc(Cn3c(=O)[nH]c(=O)c4ccccc43)ccc2F)CC1=O | 0.38 nM | 4.68 nM |  | >10 | 22.4 nM | 
CC(C1CCCCC1)N1CCN(C(=O)c2cc(Cn3c(=O)[nH]c(=O)c4ccccc43)ccc2F)CC1=O (configuration not stated) | 0.26 nM | 4.92 nM |  | >10 | 3.65 nM | 
O=C1CN(C(=O)c2cc(Cn3c(=O)[nH]c(=O)c4ccccc43)ccc2F)CCN1CCC1CC1 | 2.15 nM | 2.08 nM | Active | >10 | 4.15 nM | 
CN(C)CCN1CCN(C(=O)c2cc(Cn3c(=O)[nH]c(=O)c4ccccc43)ccc2F)CC1=O | 6.75 nM | 2.39 nM |  |  | > 100 nM | 
CN1CCN(C(=O)c2cc(Cn3c(=O)[nH]c(=O)c4ccccc43)ccc2F)CC1=O | 5.62 nM | 3.81 nM |  | 1.18 | 51 nM | 
CCCCCN1CCN(C(=O)c2cc(Cn3c(=O)[nH]c(=O)c4ccccc43)ccc2F)CC1=O | 0.94 nM | 2.71 nM | Active | >10 | 331 nM | 
CC(C)N1CCN(C(=O)c2cc(Cn3c(=O)[nH]c(=O)c4ccccc43)ccc2F)CC1=O | 1.72 nM | 5.06 nM |  | >10 | 30.9 nM | 
CC(C)C(C)N1CCN(C(=O)c2cc(Cn3c(=O)[nH]c(=O)c4ccccc43)ccc2F)CC1=O (configuration not stated) | 1.86 nM | 9 nM | Active | >10 | 1.67 nM | 
CC(C)=CCN1CCN(C(=O)c2cc(Cn3c(=O)[nH]c(=O)c4ccccc43)ccc2F)CC1=O | 2.35 nM | 9.85 nM | Active | >10 | 6.54 nM | 
O=C(c1cc(Cn2c(=O)[nH]c(=O)c3ccccc32)ccc1F)N1CC(=O)N2CCCC2C1 (configuration not stated) | 9.2 nM | 17.2 nM |  | >10 | 46.1 nM | 
CC(C1CCCC1)N1CCN(C(=O)c2cc(Cn3c(=O)[nH]c(=O)c4ccccc43)ccc2F)CC1=O (configuration not stated) | 0.22 nM | 3.67 nM | Active | >10 | 1.18 nM | 
O=C1CN(C(=O)c2cc(Cn3c(=O)[nH]c(=O)c4ccccc43)ccc2F)CCN1 | 1.88 nM | 4.33 nM |  | 3.23 | > 100 nM | 
O=C(c1cc(Cn2c(=O)[nH]c(=O)c3ccccc32)ccc1F)N1CCN(C2CCCC2)C(=O)C1 | 0.29 nM | 1.4 nM | Active | >10 | 13.2 nM | 
O=C1CN(C(=O)c2cc(Cn3c(=O)[nH]c(=O)c4ccccc43)ccc2F)CCN1CC1CCCC1 | 0.1 nM | 2.46 nM | Active | >10 | 23.2 nM | 
CCC(C)N1CCN(C(=O)c2cc(Cn3c(=O)[nH]c(=O)c4ccccc43)ccc2F)CC1=O (configuration not stated) | 0.44 nM | 3.76 nM |  | >10 | 33.9 nM | 
O=C(c1cc(Cn2c(=O)[nH]c(=O)c3ccccc32)ccc1F)N1CCN(c2ccccc2)C(=O)C1 | 0.62 nM | 1.02 nM | Active | >10 | 4.88 nM | 
O=C1CN(C(=O)c2cc(Cn3c(=O)[nH]c(=O)c4ccccc43)ccc2F)CCN1CC1CC1 | 2.63 nM | 9.75 nM |  | >10 | 14.9 nM | 
COC(=O)CN1CCN(C(=O)c2cc(Cn3c(=O)[nH]c(=O)c4ccccc43)ccc2F)CC1=O | 2.67 nM | 8.88 nM |  | 4.64 | 45 nM | 
CCC(C)CN1CCN(C(=O)c2cc(Cn3c(=O)[nH]c(=O)c4ccccc43)ccc2F)CC1=O (configuration not stated) | 1.32 nM | 3.02 nM |  | >10 | 10.4 nM | 
O=C1CN(C(=O)c2cc(Cn3c(=O)[nH]c(=O)c4ccccc43)ccc2F)CCN1Cc1ccccc1 | 0.77 nM | 2.54 nM | Active | >10 | 3.12 nM | 

Now from value to compound, other results behind:

IC50 [2] | IC50 [4] | PARP1-DNA trapping activity [5] | Compound | PF50 (MX1 [1]) | IC50 (MX1 [3]) | also measured
1.22 nM | 7.59 nM |  | CCN1CCN(C(=O)c2cc(Cn3c(=O)[nH]c(=O)c4ccccc43)ccc2F)CC1=O | >10 | 23.3 nM | 
0.24 nM | 2.38 nM | Active | O=C1CN(C(=O)c2cc(Cn3c(=O)[nH]c(=O)c4ccccc43)ccc2F)CCN1CC1CCCCC1 | >10 | 9.39 nM | 
0.79 nM | 3.86 nM |  | CCC(CC)N1CCN(C(=O)c2cc(Cn3c(=O)[nH]c(=O)c4ccccc43)ccc2F)CC1=O | >10 | 0.65 nM | Cmax [6]: 515 ng/mL; AUC(0-inf) [7]: 340 ng·h/mL; half-life [8]: 30.6 min; solubility [9]: 30.4 µg/mL (≈ 65.1 µM); AUC(0-t) at 24 h [10]: 316 ng·h/mL; MRT last at 24 h [11]: 32.4 min; MRT inf [12]: 42 min; Tmax [13]: 4.8 min
2.92 nM | 15.5 nM |  | C#CCN1CCN(C(=O)c2cc(Cn3c(=O)[nH]c(=O)c4ccccc43)ccc2F)CC1=O | >10 | 28.5 nM | 
0.49 nM | 2.72 nM |  | CCCCN1CCN(C(=O)c2cc(Cn3c(=O)[nH]c(=O)c4ccccc43)ccc2F)CC1=O | >10 | 20 nM | 
0.83 nM | 4.86 nM | Active | COCCN1CCN(C(=O)c2cc(Cn3c(=O)[nH]c(=O)c4ccccc43)ccc2F)CC1=O |  | 61.3 nM | 
3.41 nM | 9.85 nM |  | O=C(c1cc(Cn2c(=O)[nH]c(=O)c3ccccc32)ccc1F)N1CC(=O)N2CCCCC2C1 (configuration not stated) | >10 | 32.6 nM | 
0.33 nM | 3.45 nM |  | CC(C)(C)CN1CCN(C(=O)c2cc(Cn3c(=O)[nH]c(=O)c4ccccc43)ccc2F)CC1=O | >10 | 23.2 nM | 
1.87 nM | 3.79 nM |  | O=C1CN(C(=O)c2cc(Cn3c(=O)[nH]c(=O)c4ccccc43)ccc2F)CCN1CC(F)(F)F | >10 | 18.6 nM | 
0.33 nM | 2.85 nM |  | O=C(c1cc(Cn2c(=O)[nH]c(=O)c3ccccc32)ccc1F)N1CCN(C2CCCCC2)C(=O)C1 | >10 | 5.79 nM | 
6.31 nM | 17.1 nM |  | O=C1CN(C(=O)c2cc(Cn3c(=O)[nH]c(=O)c4ccccc43)ccc2F)CCN1CCCO | 4.38 | 60.2 nM | 
0.71 nM | 4.18 nM |  | C=CCN1CCN(C(=O)c2cc(Cn3c(=O)[nH]c(=O)c4ccccc43)ccc2F)CC1=O |  | > 100 nM | 
